This is an account of results in US20160002141A1, “SYNTHESIS OF CALEBIN-A AND ITS BIOLOGICALLY ACTIVE ANALOGS” (priority 2014, published 2016).

SMILES strings stand for the structures.

The term melting point denotes the temperature of the solid-liquid transition. Regarding `O=C(/C=C/c1ccc(O)cc1)COC(=O)/C=C/c1ccc(O)cc1` [Example 10d, 4-Hydroxycinnamoylmethyl 4-hydroxycinnamate], the melting point lay within 289 to 291 °C.

`COc1cc(/C=C/C(=O)OCC(=O)/C=C/c2ccc(O)cc2)ccc1O` [Example 10c, 4-Hydroxycinnamoylmethyl ferulate] returned a melting point of 175.7 to 177.7 °C.

For `COc1cc(/C=C/C(=O)COC(=O)/C=C/c2ccc(O)cc2)ccc1O` [Example 10b, Feruloylmethyl 4-hydroxycinnamate], the melting point is 181.4 to 183.4 °C.

For the molecule `COc1cc(/C=C/C(=O)COC(=O)/C=C/c2ccc(O)c(OC)c2)ccc1O` [Example 10a, Feruloylmethyl ferulate], the melting point was 138 to 140 °C.
